According to PubChem BioAssay AID504931 (NMMLSC, 2011):
The source made the active and inactive calls.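 The calls were made as follows: active = compounds with a reliable fitted curve whose half-effect concentration is below 50 µM; inactive = the rest.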

Tested on: not listed separately
Assay: inhibitors of age-related superoxide in yeast, dose response, powder samples, confirmation (AID 504931)
Conditions: S. cerevisiae aged cells, superoxide DHE fluorescence, 7 d; at 100 µM (top of the series)

Compound	percent response, lower = inhibition
CN1CCN(C(=O)c2ccc3nccnc3c2)CC1	105% (inactive)
O=C(Nc1ccc2nccnc2c1)c1cccc2nccnc12	80.9% (inactive)
O=C(O)c1cnc2ccccc2n1	75.7% (inactive)
CN(C)CCNc1ncnc2c1cnn2-c1ccc(Cl)cc1	92% (inactive)
O=C(NCc1ccccc1)c1ccc2nccnc2c1	178% (inactive)
O=C(CN1CCN(c2ccccn2)CC1)Nc1ccccc1F	98.8% (inactive)
CC(C)CSc1nnc2c3ccccc3n(C)c2n1	110% (inactive)
CCN(CC)C(=O)CSc1nnc(-c2cccc(OC)c2)o1	104% (inactive)
CC(C)(C)NC(=O)Nc1ccc2nccnc2c1	101% (inactive)
Cc1cc(C)c2[nH]c3nc(SCC(=O)O)nnc3c2c1	92.4% (inactive)
CN(C)C(=O)c1ccc2nccnc2c1	181% (inactive)
O=C(Nc1ccc2nccnc2c1)N1CCN(c2ccccc2)CC1	91.3% (inactive)
C=CCSc1ccc(-c2ccc([N+](=O)[O-])cc2)o1	54.8% (inactive)
Cc1cc2nc3ccc(N(C)C)cc3nc2cc1N	89.3% (inactive)
C#CCSc1ccc(-c2ccc([N+](=O)[O-])cc2)o1	58% (inactive)
O=C(O)c1cccc2nccnc12	93.9% (inactive)
CC(C)OC(=O)CSc1nnc(-c2ccc(Cl)cc2Cl)o1	97.2% (inactive)
O=C(Nc1cccc(Cl)c1)Nc1ccc2nccnc2c1	87.5% (inactive)
CCn1c2ccccc2c2n[nH]c(=S)nc21	99.9% (inactive)
CCc1nc(NC(C)(C)C)c2cnn(-c3ccccc3)c2n1	117% (inactive)
c1ccc2nc3ccccc3nc2c1	119% (inactive)
O=C(c1ccc2nccnc2c1)N1CCCCC1	105% (inactive)
CCC(=Nc1ccccc1O)C1=C(O)CC(c2ccccc2)CC1=O (stereo not drawn)	62.2% (inactive)
Oc1cccc2nc3ccccc3nc12	194% (inactive)
O=C(c1cccc2nccnc12)N1CCN(c2ccccc2F)CC1	101% (inactive)
O=C(O)c1ccc2nccnc2c1	85.8% (inactive)

Compound	percent response, lower = inhibition
O=C(OCc1c(F)cccc1Cl)c1cnc2ccccc2n1	86.9% (inactive)
O=C(Nc1ccc2nccnc2c1)NC1CCCCC1	96% (inactive)
O=C(Nc1ccc2nc3ccccc3nc2c1)c1ccc(Br)cc1	88% (inactive)
Cn1c(O)c(C(=Nc2ccc(F)cc2)c2ccccc2Cl)c(=O)n(C)c1=O	98.6% (inactive)
COc1ccc2nc3ccccc3[n+]([O-])c2c1	122% (inactive)
O=C(c1cccc2nccnc12)N1CCOc2ccccc21	96.8% (inactive)
C[C@@]12C(=O)OC(=O)[C@]1(C)C1CCC2O1	351% (inactive)
O=C(Nc1cccc2nccnc12)c1ccccc1	80.3% (inactive)
COc1ccc2nc3ccccc3nc2c1	108% (inactive)
O=C(c1ccc2nccnc2c1)N1CCN(c2ccccc2)CC1	89.9% (inactive)
C[n+]1c2ccccc2nc2ccc(NCCO)cc21	62.9% (inactive)
O=C(/C=C/c1cccs1)NC(=S)NNC(=O)Cc1cccs1	66.6% (inactive)
C=CCOn1c(=O)c(-c2cccs2)[n+]([O-])c2ccccc21	112% (inactive)
Cc1cc(C)cc(NC(=O)CN2CCN(c3ccccn3)CC2)c1	99.1% (inactive)
CC(C)(C)Nc1ncnc2c1cnn2-c1ccccc1	94.4% (inactive)
CSc1nnc(-c2ccc([N+](=O)[O-])cc2)o1	74% (inactive)
O=C(Nc1ccccc1)c1ccc2nccnc2c1	96.8% (inactive)
Cn1c(=O)[nH]c2nncnc2c1=O	111% (inactive)
N#CC(c1nc2ccccc2nc1N1CCCC1)S(=O)(=O)c1ccccc1 (stereo not drawn)	89.3% (inactive)
O=c1[nH]c(O)c(C=Nc2ccc(F)c(Cl)c2)c(=O)[nH]1	106% (inactive)
Nc1ccc2nccnc2c1	96.2% (inactive)
O=C(Nc1ccc2nccnc2c1)N1CCOCC1	96.4% (inactive)
COc1ccc2cc(C3CC(c4ccco4)=NN3S(=O)(=O)c3ccccc3)c(Cl)nc2c1 (stereo not drawn)	97.3% (inactive)
[O-][n+]1c2ccccc2[n+]([O-])c2cc(O)ccc21	126% (inactive)
O=C(/C=C/c1ccccc1)NC(=S)NNC(=O)Cc1cccs1	74.9% (inactive)

Tested on: S. cerevisiae aged cells, superoxide DHE fluorescence, 7 d
Assay: as above
Conditions: not given

Compound	EC50
O=C(c1cccc2nc3ccccc3nc12)N1CCOCC1	2330 nM
COc1ccc2nc3ccccc3nc2c1NC(=O)c1ccccc1Cl	1110 nM
COc1ccc2c(c1)c1nnc(SC)nc1n2C	1570 nM
O=C1c2c(O)ccc(O)c2C(=O)c2c(NCCNCCO)ccc(NCCNCCO)c21	3410 nM
CCN(CC)C(=O)c1cccc2nc3ccccc3nc12	2800 nM
Nc1cc2nc3ccccc3nc2cc1N	4500 nM
CC(=O)Nc1ccc2nc3ccccc3nc2c1	330 nM
CCN(CC)c1ccc2nc3ccc(N)cc3[n+](-c3ccccc3)c2c1	26400 nM
N#CCc1nn(-c2ccccc2)c2ncnc(N)c12	800 nM
COc1cccc2nc3cc(C)c(C)cc3nc12	900 nM
OCC[n+]1c2ccccc2nc2ccc(N3CCOCC3)cc21	10700 nM
Cc1ccc(-c2nn(C(C)(C)C)c3ncnc(N)c23)cc1	2250 nM
CC(C)(C)n1nc(-c2ccc(Cl)cc2)c2c(N)ncnc21	7980 nM
CC(C)OC(=O)c1ccc2nc3ccccc3nc2c1	10900 nM
COc1ccc2nc3ccccc3nc2c1N	2320 nM
CC(C)(C)n1nc(-c2ccc(F)cc2)c2c(N)ncnc21	17200 nM
Cc1ccccc1NC(=O)c1cccc2nc3ccccc3nc12	5450 nM
c1ccc2[nH]c3cc4ncnc4cc3nc2c1	1110 nM
FC(F)(F)c1nc2cc3nc4ccccc4[nH]c3cc2n1	510 nM
CCN(CC)C(=O)c1ccc2nc3ccccc3nc2c1	800 nM
CNc1ccc2nc3ccccc3[n+](C)c2c1	6010 nM
CCCCCNC(=O)C(=O)C1C(=O)Nc2ccccc21 (stereo not drawn)	330 nM
